In one series the test system is rats. Kind of series: Toxicity in rats, intravenous administration every day for 2 weeks (Experiment 3). It counts as in vivo. As for the experimental part: Four male rats were used. β-CyD-G2-COOH was dissolved in sterilized water. The solution was intravenously administered to rats in daily doses of 1 ml/kg, 3 ml/kg, and 10 ml/kg (containing β-CyD-G2-COOH in amounts of 100 mg/kg, 300 mg/kg, and 1000 mg/kg, respectively) every day for 2 weeks.
As a control, the toxicity of β-CyD-G2 was studied according to the same manner.

Series [1] can be described thus: Hemolytic effect on rabbit erythrocytes (Experiment 1, Fig. 1). As to conditions: rabbit, erythrocytes, phosphate buffer, pH 7.4.
Procedure: (§3) To this was added sodium 6-O-cyclomaltoheptaosyl-(6→1)-α-D-glucosyl-(4→1)-O-α-D-glucuronate (β-CyD-G2-COONa) was added so that the concentration thereof became 1 to 40 mM. The mixture was shaken at 37°C for 30 minutes and then centrifuged to separate the supernatant. […] The amount of hemoglobin bursted in water instead of isotonic phosphate buffer was used as a standard (100%), and the relative ratio to it was indicated as a hemolytic ratio.
(§4) Further, according to the same manner as that described above except using β-cyclodextrin (β-CyD) instead of β-CyD-G2-COONa, the hemolytic ratio was determined.
(§5) (Control: β-cylodextrin 4 mM, 6-O-α-D-glucosyl-(1→4)-α-D-glucosyl-β-cyclodextrin 8 mM)
The next series has as its target T1, Pullulanase (Klebsiella pneumoniae, UniProt P07206).
T1 construct: purchased
T1 sequence (P07206 20-1090): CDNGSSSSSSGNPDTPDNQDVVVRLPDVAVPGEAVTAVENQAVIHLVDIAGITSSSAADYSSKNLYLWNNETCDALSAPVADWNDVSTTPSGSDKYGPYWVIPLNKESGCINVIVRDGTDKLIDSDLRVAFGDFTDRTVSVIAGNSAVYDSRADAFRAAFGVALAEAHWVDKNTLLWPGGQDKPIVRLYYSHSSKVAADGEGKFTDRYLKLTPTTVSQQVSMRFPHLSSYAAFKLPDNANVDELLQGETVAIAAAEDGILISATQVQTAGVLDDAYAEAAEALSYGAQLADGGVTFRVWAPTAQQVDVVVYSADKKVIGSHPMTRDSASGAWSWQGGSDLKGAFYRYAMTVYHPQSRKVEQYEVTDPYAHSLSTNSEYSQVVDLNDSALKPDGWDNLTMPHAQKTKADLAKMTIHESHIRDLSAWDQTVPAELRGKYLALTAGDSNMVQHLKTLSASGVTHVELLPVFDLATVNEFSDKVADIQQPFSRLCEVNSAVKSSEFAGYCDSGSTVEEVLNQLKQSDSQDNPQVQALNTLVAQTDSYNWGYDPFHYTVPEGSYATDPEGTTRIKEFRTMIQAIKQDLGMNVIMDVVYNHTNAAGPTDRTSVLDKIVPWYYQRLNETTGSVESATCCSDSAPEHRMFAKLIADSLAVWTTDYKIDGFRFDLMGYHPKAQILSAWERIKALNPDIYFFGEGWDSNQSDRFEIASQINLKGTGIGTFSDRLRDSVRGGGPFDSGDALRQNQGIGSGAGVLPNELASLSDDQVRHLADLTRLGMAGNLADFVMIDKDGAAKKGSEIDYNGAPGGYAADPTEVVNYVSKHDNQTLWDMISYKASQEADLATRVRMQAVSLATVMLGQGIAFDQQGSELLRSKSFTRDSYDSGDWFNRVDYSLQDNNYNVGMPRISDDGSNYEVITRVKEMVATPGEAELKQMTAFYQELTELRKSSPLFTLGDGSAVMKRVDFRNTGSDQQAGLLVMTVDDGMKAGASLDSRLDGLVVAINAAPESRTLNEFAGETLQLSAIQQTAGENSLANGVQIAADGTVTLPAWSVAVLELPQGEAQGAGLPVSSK
Kind of series: Stability to enzymatic treatment with pullulanase (Experiment 4, Fig. 5). The series is classed as in vitro ADME. Particulars: 10 mM aqueous cyclodextrin, pullulanase 10 unit/ml, 37°C, 0 to 120 minutes; read-out: decomposed in the enzymatic treatment with pullulanase. As for the experimental part: (§1) As a control, 6-O-α-maltosyl-β-cyclodextrin was used. Test method: Each of prescribed amounts of the following enzymes was added to a 10 mM aqueous solution of cyclodextrin to be tested. The mixture was allowed to stand in a water bath at 37°C. 50 µl of each mixture was sampled, and the enzyme was inactivated by heating it at 100°C for 15 minutes, centrifuged at 15,000 rpm for 5 minutes, filtered through Millipore USY-1 (differential molecular weight: 10,000), diluted 10 times and subjected to HPLC analysis. HPLC analytic conditions: • Column; NH2P-50 (Asahipak) • Mobile phase; CH3CN:H2O=48:52 to which 0.005M PIC reagent was added. • Flow rate; 0.8 ml/minute • Detection; RI The ratio of the remaining cyclodextrin at 0 to 120 minutes was determined from the above HPLC analysis of each sample.
(§2) Each unit is as described in the instruction book of the enzyme obtained from above market. Results: Changes of the ratio of remaining 6-O-α-D-glucuronyl(1→4)-α-D-glucosyl-β-cyclodextrin sodium salt (branched cyclodextrin-carboxylic acid salt) and 6-O-α-maltosyl-β-cyclodextrin (branched cyclodextrin) with the passage of time are shown in Figures 3 to 6. In the figures, black triangles represent the branched cyclodextrin-carboxylic acid salt, and black dots represent the branched cyclodextrin.

For series [2] the following is noted: cited from earlier work.
Series [3] can be described thus: Water-solubility of the cyclodextrins themselves.
Series [4] can be described thus: Stability to acid: half-life in 0.1N HCl solution.
For the next series, the system named is Human erythrocytes. The experiment in a line: Hemolytic effect on human erythrocytes (Experiment 2, Fig. 2). The series is classed as cell-based. As to conditions: 0.1M isotonic phosphate buffer (pH 7.4), 5 to 30 mM, 37°C, 30 minutes. The procedure:
Human erythrocytes were added to 0.1M isotonic phosphate buffer (pH 7.4) to prepare a 20% suspension. The 20% erythrocyte suspension (100 µl) was added to an isotonic buffer (4 ml) containing β-CyD-G2-COONa in a concentration of 5 to 30 mM.
The results are in Figure 2 together with the above results for comparison.

A further series addresses T2, Glucoamylase (Rhizopus oryzae, UniProt P07683).
T2 construct: purchased
It counts as in vitro ADME, Rhizopus sp. Particulars: 10 mM aqueous cyclodextrin, glucoamylase 2 unit/ml, 37°C, 0 to 120 minutes; compared with 6-O-α-maltosyl-β-cyclodextrin. The procedure: as §1, §2

Another series concerns the target T3, β-Glucuronidase (Bos taurus, UniProt A3KMY8).
T3 construct: purchased; host or cells: calf liver (per earlier reading)
T3 sequence (A3KMY8 1-652): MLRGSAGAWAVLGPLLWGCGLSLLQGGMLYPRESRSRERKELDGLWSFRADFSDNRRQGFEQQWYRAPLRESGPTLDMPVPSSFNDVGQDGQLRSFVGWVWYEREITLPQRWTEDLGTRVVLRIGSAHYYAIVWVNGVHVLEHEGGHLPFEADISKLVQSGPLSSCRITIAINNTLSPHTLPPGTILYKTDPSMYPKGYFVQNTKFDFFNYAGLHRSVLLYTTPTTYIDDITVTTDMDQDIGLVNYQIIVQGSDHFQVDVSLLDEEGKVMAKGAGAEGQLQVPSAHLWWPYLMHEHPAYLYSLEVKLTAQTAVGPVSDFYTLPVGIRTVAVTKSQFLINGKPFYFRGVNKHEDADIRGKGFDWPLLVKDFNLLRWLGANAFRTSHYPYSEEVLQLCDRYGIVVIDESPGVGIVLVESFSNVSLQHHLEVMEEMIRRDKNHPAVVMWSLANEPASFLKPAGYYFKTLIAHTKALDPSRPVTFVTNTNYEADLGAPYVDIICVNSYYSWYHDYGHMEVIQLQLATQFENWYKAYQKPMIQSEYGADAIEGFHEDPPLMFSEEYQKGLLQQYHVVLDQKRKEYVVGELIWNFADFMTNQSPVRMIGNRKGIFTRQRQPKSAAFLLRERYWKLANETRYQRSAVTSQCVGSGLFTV
The experiment in a line: Stability to enzymatic treatment with β-glucuronidase (Experiment 4, Fig. 6). As to conditions: 10 mM aqueous cyclodextrin, β-glucuronidase 700 unit/ml, 37°C, 0 to 120 minutes; compared with 6-O-α-maltosyl-β-cyclodextrin. It counts as in vitro ADME, Calf liver. As for the experimental part:
as §1, §2

The subject of series [5] is Rabbit erythrocytes. As to conditions: phosphate buffer, pH 7.4.
Procedure: as §3, §4, §5
The conditions of series [6]: water.
Series [7] deals with Rabbit erythrocytes. Kind of series: Hemolytic effect on rabbit erythrocytes (Experiment 1, Fig. 1). Particulars: 0.25% rabbit erythrocyte suspension, 10 mM isotonic phosphate buffer (pH 7.4), 1 to 40 mM, 37°C, 30 minutes.
Procedure: as §3, §4, §5
The mark [8] stands for this setting: male rats, 100 mg/kg, 300 mg/kg and 1000 mg/kg every day for 2 weeks.

Converted amounts (≈) assume the structure as drawn. Like-named read-outs stand apart in the source and are kept apart here.

T2 sequence (P07683 26-604): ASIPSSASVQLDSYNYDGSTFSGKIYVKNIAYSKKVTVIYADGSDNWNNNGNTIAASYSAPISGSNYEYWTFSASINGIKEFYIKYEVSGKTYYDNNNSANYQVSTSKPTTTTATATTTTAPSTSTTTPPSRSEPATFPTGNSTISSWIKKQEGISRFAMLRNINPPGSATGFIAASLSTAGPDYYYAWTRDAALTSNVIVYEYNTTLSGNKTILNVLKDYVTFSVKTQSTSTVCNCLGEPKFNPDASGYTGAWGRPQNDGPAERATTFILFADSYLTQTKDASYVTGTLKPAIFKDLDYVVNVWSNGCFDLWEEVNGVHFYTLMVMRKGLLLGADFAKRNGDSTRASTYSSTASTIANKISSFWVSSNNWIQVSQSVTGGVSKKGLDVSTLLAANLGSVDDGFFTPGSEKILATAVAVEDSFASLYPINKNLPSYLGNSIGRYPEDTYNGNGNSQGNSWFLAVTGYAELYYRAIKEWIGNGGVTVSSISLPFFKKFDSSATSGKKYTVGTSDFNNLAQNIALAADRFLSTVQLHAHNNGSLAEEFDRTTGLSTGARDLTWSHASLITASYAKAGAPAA

Consider “6-O-cyclomaltoheptaosyl-(6→1)-α-D-glucosyl-(4→1)-O-α-D-glucuronic acid [β-CyD-G2-COOH]”, for which, in the series with rats (setting [8]), the “Pathological and histological examination” value was “no serious findings such as necrosis”; the death entry is recorded as “No rats died”; the “general appearance, diet intake amount, body weight, urine sediments, hematological examination” value is recorded as “No abnormality was observed”.
Usually HC50 stands for the concentration that lyses half of the red blood cells. Molecule `OC[C@H]1O[C@@H]2O[C@H]3[C@H](O)[C@@H](O)[C@@H](O[C@H]4[C@H](O)[C@@H](O)[C@@H](O[C@H]5[C@H](O)[C@@H](O)[C@@H](O[C@H]6[C@H](O)[C@@H](O)[C@@H](O[C@H]7[C@H](O)[C@@H](O)[C@@H](O[C@H]8[C@H](O)[C@@H](O)[C@@H](O[C@H]1[C@H](O)[C@H]2O)O[C@@H]8CO)O[C@@H]7CO)O[C@@H]6CO)O[C@@H]5CO)O[C@@H]4CO)O[C@@H]3CO` [β-CyD, β-cyclodextrin] registered a 50% haemolytic concentration (HC50) in series [1] of 4 mM.
The term half-life denotes the time needed for the level to fall by half in the phase considered. The low end stands for fast loss, the high end for slow loss. With `OC[C@H]1O[C@H](O[C@H]2[C@H](O)[C@@H](O)[C@@H](OC[C@H]3O[C@@H]4O[C@H]5[C@H](O)[C@@H](O)[C@@H](O[C@H]6[C@H](O)[C@@H](O)[C@@H](O[C@H]7[C@H](O)[C@@H](O)[C@@H](O[C@H]8[C@H](O)[C@@H](O)[C@@H](O[C@H]9[C@H](O)[C@@H](O)[C@@H](O[C@H]%10[C@H](O)[C@@H](O)[C@@H](O[C@H]3[C@H](O)[C@H]4O)O[C@@H]%10CO)O[C@@H]9CO)O[C@@H]8CO)O[C@@H]7CO)O[C@@H]6CO)O[C@@H]5CO)O[C@@H]2CO)[C@H](O)[C@@H](O)[C@@H]1O` [β-CyD-G2, 6-O-α-maltosyl-β-cyclodextrin], the “Pathological and histological examination” value with rats (rats, every day for 2 weeks, 300 mg/kg and 1000 mg/kg groups) is “renal tubule epithelium vacuolation and necrosis”. In the series on rats (rats, every day for 2 weeks, 1000 mg/kg group), the Urine examination result was “occult blood and an increase in LDH and NAG”. Moreover, the “observed signs (general appearance)” value in the series with rats (rats, every day for 2 weeks, groups of 300 mg/kg and 1000 mg/kg) was “Auricle flush and peripheral swelling in the extremities”. The metabolised at 2 h, 10000 µM at Pullulanase is roughly 60%. The “water-solubility relative to that of β-cyclodextrin” value in series [2] (stated as known) is recorded as “several tens of times that of β-cyclodextrin”. In series [3], this molecule had a solubility of 1500 mg/mL (≈ 1030 mM). Besides, in series [4], the half-life was 5 h. In series [1], this molecule returned an HC50 of 8 mM.
Take “sodium 6-O-cyclomaltoheptaosyl-(6→1)-α-D-glucosyl-(4→1)-O-α-D-glucuronate [β-CyD-G2-COONa]”: the “Half-life in 0.1N HCl solution at 60°C” value was 8 h. Also, the “hemolytic effect (hemolytic ratio vs cyclodextrin concentration, Figure 2)” value with Human erythrocytes was “much less hemolytic effect than that of β-CyD, β-CyD-G1 or β-CyD-G2”. Also, on Glucoamylase, the “stability to the enzymatic treatment with glucoamylase” value was “more stable”. For the same molecule, the “stability to the enzymatic treatment with β-glucuronidase” value at β-Glucuronidase is “more stable”. The molecule also had a concentration for 50% haemolysis (HC50) with Rabbit erythrocytes [5] of 11 mM. In series [6], this molecule returned a solubility greater than 200 g/100 ml. Further, in the series with Rabbit erythrocytes [7], the “hemolytic effect (hemolytic ratio vs cyclodextrin concentration, Figure 1)” value is “much less hemolytic effect than that of β-CyD”.
Take α-cyclodextrin [α-CyD]: the water-solubilities entry in series [2] (water) is “about 15%”.

Source of the values: patent publication EP0657176B1, “Composition containing a water-insoluble or slightly water-soluble compound with enhanced water-solubility” (priority 1993, dated 1995).
